IC50 data for eight molecules are collected here from ChEMBL document CHEMBL1131785, “Design and synthesis of amidino-tyrosine derivatives as non-peptide fibrinogen receptor antagonists” (Bioorg Med Chem Lett, 1999).

Where only a bound is given, the exact number is not on record here.

The species named for the experiment is Homo sapiens. Nature of the experiment: Inhibitory activity against adenosine diphosphate (ADP)-induced platelet aggregation. The experiment is classed as functional, organism-based.
In the case of `N=C(N)c1ccc(OCCOc2ccc(C[C@H](NC(=O)c3ccco3)C(=O)O)cc2)cc1`, 710 nM corresponded to half-maximal inhibition (IC50).
As for `Cc1ccc(C(=O)N[C@@H](Cc2ccc(OCC(=O)Nc3ccc(C(=N)N)cc3)cc2)C(=O)O)cc1`, the figure is 250 nM.
In the case of `N=C(N)c1ccc(OCCOc2ccc(C[C@H](NC(=O)c3ccccc3)C(=O)O)cc2)cc1`, the IC50 (commonly the concentration that gives 50% inhibition) was 740 nM.
As for `N=C(N)c1ccc(OCCCOc2ccc(C[C@H](NC(=O)c3ccccc3)C(=O)O)cc2)cc1`, the figure is more than 1000 nM; as for `N=C(N)c1ccc(OCCCCOc2ccc(C[C@H](NC(=O)c3ccccc3)C(=O)O)cc2)cc1`, more than 1000 nM.
In the case of `Cc1ccccc1OCC(=O)N[C@@H](Cc1ccc(OCC(=O)Nc2ccc(C(=N)N)cc2)cc1)C(=O)O` it was 610 nM.
For the molecule `N=C(N)c1ccc(NC(=O)COc2ccc(C[C@H](NC(=O)c3ccccc3)C(=O)O)cc2)cc1`, the midpoint of inhibition, the IC50, lay at 270 nM.
`N=C(N)c1ccc(NC(=O)COc2ccc(C[C@H](NC(=O)c3ccc4ccccc4c3)C(=O)O)cc2)cc1`: the IC50 is 510 nM.
